Patent publication US20060035820A1, “New derivatives of echinocandine, their preparation process and their use as antifungals” (AVENTIS PHARMA S.A., priority 1999, published 2006)

Target: T1, Glucan Synthase of Candida albicans (Candida albicans, UniProt O13428)
T1 construct: endogenous in cells; host or cells: Candida albicans membrane preparation (method of Tang et al. 1991)
Test: Inhibition of the Glucan Synthase of Candida albicans
Assay type: biochemical
Conditions: Candida albicans membranes, 14C-UDP glucose, 25° C. for 1 hour
Procedure: A—Inhibition of the Glucan Synthase of Candida albicans.
Candida albicans membranes were purified according to the process described by Tang et al Antimicrob. Agents Chemother 35, 99-103, 1991. 22.5 μg of membrane proteins are incubated in a mixture of 2 Mm of 14C-UDP glucose (specific activity=0.34 mCi./mmol, 50 μg of α-amylase, 1 Mm of dithiotreitol (DTT), 1 Mm EDTA, 100 Mm NaF, 7 μM of GTP-γ-S, 1M of sucrose and 50 Mm of Tris-HCL (pH 7.8) in a volume of 100 μl. The medium is incubated at 25° C. for 1 hour and the reaction is terminated by adding TCA at a final concentration of 5%. The reaction mixture is transferred onto a pre-humidified glass fibre filter. The filter is washed, dried and its radioactivity is counted. Mulundocandine is used as a positive control. Control of the vehicle is carried out with the same quantity of 1% DMSO.

T1 sequence (O13428 1-1897): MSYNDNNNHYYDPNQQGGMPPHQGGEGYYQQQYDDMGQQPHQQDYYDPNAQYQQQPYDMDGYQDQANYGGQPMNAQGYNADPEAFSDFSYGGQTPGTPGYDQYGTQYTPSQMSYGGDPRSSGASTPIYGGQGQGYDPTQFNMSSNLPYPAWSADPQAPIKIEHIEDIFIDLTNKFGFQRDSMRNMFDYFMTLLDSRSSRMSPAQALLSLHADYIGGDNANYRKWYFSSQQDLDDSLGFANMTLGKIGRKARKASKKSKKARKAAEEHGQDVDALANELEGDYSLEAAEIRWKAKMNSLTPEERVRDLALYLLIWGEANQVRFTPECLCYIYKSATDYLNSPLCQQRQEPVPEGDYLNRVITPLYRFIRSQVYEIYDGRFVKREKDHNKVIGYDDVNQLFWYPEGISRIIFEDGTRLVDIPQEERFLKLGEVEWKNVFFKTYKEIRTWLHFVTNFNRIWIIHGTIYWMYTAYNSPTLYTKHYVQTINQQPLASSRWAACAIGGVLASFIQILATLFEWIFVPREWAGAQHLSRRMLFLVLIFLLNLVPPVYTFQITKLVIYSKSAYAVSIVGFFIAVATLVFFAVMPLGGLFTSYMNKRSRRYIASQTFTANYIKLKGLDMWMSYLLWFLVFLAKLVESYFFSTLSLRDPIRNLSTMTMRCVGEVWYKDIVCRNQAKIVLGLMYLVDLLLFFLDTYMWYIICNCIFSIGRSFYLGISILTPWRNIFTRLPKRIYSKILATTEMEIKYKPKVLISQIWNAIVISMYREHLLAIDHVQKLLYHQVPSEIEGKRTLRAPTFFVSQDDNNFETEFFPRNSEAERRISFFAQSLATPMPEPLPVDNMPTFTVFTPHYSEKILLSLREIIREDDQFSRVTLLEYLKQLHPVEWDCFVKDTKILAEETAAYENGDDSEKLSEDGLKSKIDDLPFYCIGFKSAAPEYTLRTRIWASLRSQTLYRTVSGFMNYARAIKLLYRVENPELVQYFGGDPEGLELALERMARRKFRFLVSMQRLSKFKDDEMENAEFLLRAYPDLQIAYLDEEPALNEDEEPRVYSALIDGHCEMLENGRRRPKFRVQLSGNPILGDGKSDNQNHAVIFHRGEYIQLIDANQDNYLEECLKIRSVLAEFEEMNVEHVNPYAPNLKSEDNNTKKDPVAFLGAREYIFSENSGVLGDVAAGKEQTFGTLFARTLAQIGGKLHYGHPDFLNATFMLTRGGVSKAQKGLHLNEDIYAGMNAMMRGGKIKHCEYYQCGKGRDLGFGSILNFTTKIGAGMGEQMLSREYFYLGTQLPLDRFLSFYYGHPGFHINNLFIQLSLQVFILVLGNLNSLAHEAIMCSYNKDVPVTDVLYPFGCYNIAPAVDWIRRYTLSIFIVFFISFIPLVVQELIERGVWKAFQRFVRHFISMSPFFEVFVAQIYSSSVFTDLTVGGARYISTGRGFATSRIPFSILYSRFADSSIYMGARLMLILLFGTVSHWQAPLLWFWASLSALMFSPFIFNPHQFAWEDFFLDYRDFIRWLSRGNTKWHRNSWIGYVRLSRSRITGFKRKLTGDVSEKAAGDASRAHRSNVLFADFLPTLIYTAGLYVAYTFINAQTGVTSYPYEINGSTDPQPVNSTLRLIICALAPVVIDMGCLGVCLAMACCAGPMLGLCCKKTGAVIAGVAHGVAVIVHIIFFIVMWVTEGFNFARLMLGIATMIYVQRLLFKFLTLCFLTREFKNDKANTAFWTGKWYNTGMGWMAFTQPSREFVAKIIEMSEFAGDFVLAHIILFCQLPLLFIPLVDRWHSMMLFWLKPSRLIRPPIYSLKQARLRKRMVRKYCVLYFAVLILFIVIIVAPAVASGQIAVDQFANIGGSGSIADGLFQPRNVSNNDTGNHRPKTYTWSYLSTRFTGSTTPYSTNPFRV
T1 sequence (O42825 1-195 partner limits assumed): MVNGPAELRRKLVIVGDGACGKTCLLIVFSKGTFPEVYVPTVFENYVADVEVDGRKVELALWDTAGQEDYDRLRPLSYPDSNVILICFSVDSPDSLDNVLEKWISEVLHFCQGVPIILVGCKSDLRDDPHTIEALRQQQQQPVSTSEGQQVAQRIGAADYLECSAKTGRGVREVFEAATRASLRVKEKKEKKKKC

## Trans 1-[4-[(2-aminocyclo-hexyl)-amino]-N2-[[4″-(pentyloxy)[1,1′:4′,1″-terphenyl]-4-yl)]-carbonyl]-L-ornithine]-4-[4-(4-hydroxyphenyl)-L-threonine]-5-L-serine-echinocandin B trifluoroacetate (isomer A). [Example 3 isomer A]
  Inhibition of the glucan synthase of Candida albicans (activity in words): good activity
